According to US10183936B2, “Hepatitis B core protein allosteric modulators” (priority 2014, dated 2019):

Experiments:
[1] = tested on: HBV viral production in AD38 cells; test: Viral load production in AD38 cells by quantitative PCR of the HBV core sequence in supernatant; assay type: cell-based; details: Hepatitis B virus, 144 h; 10 μM compound, 6 days at 37° C., viral load in supernatant compared against DMSO control wells; read-out: AD38 Viral Load (CpAM/DMSO %) at 10 μM
Summary of the method: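 AD38 cells seeded at 50,000/well, treated 6 days at 37° C with compound added as 10× solution in 10% DMSO. HBV core sequence in clarified supernatant quantified by TaqMan qPCR against known standards; viral load compared with DMSO control wells.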

AD38 cells = test: Viability of AD38 cells (Promega CellTiter-Glo) at the end of compound treatment; assay type: cell-based; details: 10 μM compound, 6 days, luminescence normalized against DMSO control wells (controls being 100%)
Summary of the method: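 AD38 cells seeded at 50,000/well received compound from a 10× solution in 10% DMSO and were incubated 6 days at 37° C. Viability was then read by CellTiter-Glo luminescence in tetracycline-free medium with 2% FBS and 1% DMSO, normalized to DMSO control wells (100%) and reported as percent viability.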

Cc1c(C(=O)NCCc2cccnc2)ccc2c1NC(=O)c1ccccc1S2 [Compound 1467]
activity at 10 µM [1]: 1%
AD38 Viability Normalized Result (CPAM/DMSO %) at 10 μM (AD38 cells): 92%

O=C(Nc1cccc(-c2cccc(O)c2)c1)c1ccc2c(c1)NC(=O)c1cc(F)ccc1S2 [Compound 1468]
activity at 10 µM [1]: 76%
AD38 Viability Normalized Result (CPAM/DMSO %) at 10 μM (AD38 cells): 97%

O=C(NCCc1ccccn1)c1ccc2c(c1)NC(=O)c1c(F)cccc1S2 [Compound 1471]
activity at 10 µM [1]: 16%
AD38 Viability Normalized Result (CPAM/DMSO %) at 10 μM (AD38 cells): 97%

O=C(Nc1cccc(-c2ccccc2)c1)c1ccc2c(c1)NC(=O)c1c(F)cccc1S2 [Compound 1472]
activity at 10 µM [1]: 37%
AD38 Viability Normalized Result (CPAM/DMSO %) at 10 μM (AD38 cells): 95%

O=C1Nc2cc(S(=O)(=O)NCc3cncnc3)ccc2Sc2ccccc21 [Compound 1473]
activity at 10 µM [1]: 81%
AD38 Viability Normalized Result (CPAM/DMSO %) at 10 μM (AD38 cells): 97%

O=C(NCCc1ccccn1)c1ccc2c(c1)NC(=O)c1ccccc1N2Cc1ccccc1 [Compound 1474]
activity at 10 µM [1]: 51%
AD38 Viability Normalized Result (CPAM/DMSO %) at 10 μM (AD38 cells): 101%

O=C(NCCc1cccnc1)c1ccc2c(c1)NC(=O)c1ccccc1N2Cc1ccccc1 [Compound 1475]
activity at 10 µM [1]: 47%
AD38 Viability Normalized Result (CPAM/DMSO %) at 10 μM (AD38 cells): 107%

O=C(NCCc1ccc(-c2ccccc2)cc1)c1ccc2c(c1)NC(=O)c1ccccc1[S+]2[O-] (stereo not shown) [Compound 1476]
activity at 10 µM [1]: 1%
AD38 Viability Normalized Result (CPAM/DMSO %) at 10 μM (AD38 cells): 86%

CN(C)S(=O)(=O)c1ccc(CCNC(=O)c2ccc3c(c2)NC(=O)c2c(F)cccc2S3)cc1 [Compound 1477]
activity at 10 µM [1]: 67%
AD38 Viability Normalized Result (CPAM/DMSO %) at 10 μM (AD38 cells): 16%

Cc1c(C(=O)NCc2cncnc2)ccc2c1NC(=O)c1ccccc1S2 [Compound 1478]
activity at 10 µM [1]: 2%
AD38 Viability Normalized Result (CPAM/DMSO %) at 10 μM (AD38 cells): 94%

O=C(Nc1ncc(-c2ccccc2)o1)c1ccc2c(c1)NC(=O)c1cc(F)ccc1S2 [Compound 1480]
activity at 10 µM [1]: 72%
AD38 Viability Normalized Result (CPAM/DMSO %) at 10 μM (AD38 cells): 95%

O=C(Nc1ncc(-c2ccccc2)s1)c1ccc2c(c1)NC(=O)c1cc(F)ccc1S2 [Compound 1481]
activity at 10 µM [1]: 46%
AD38 Viability Normalized Result (CPAM/DMSO %) at 10 μM (AD38 cells): 100%

O=C(NCc1cncnc1)c1ccc2c(c1)NC(=O)c1ccccc1N2Cc1ccccc1 [Compound 1482]
activity at 10 µM [1]: 46%
AD38 Viability Normalized Result (CPAM/DMSO %) at 10 μM (AD38 cells): 98%

O=C(NCCc1ccc(-c2ccccc2)cc1)c1ccc2c(c1)NC(=O)c1ccccc1N2Cc1ccccc1 [Compound 1483]
activity at 10 µM [1]: 65%
AD38 Viability Normalized Result (CPAM/DMSO %) at 10 μM (AD38 cells): 98%

O=C(Nc1cccc(-c2ccccc2)c1)c1ccc2c(c1)NC(=O)c1ccccc1N2Cc1ccccc1 [Compound 1484]
activity at 10 µM [1]: 26%
AD38 Viability Normalized Result (CPAM/DMSO %) at 10 μM (AD38 cells): 100%

O=C(NCCc1cnco1)c1ccc2c(c1)NC(=O)c1ccccc1[S+]2[O-] (stereo not shown) [Compound 1485]
activity at 10 µM [1]: 30%
AD38 Viability Normalized Result (CPAM/DMSO %) at 10 μM (AD38 cells): 96%

CN(C)S(=O)(=O)c1ccc(CCNC(=O)c2ccc3c(c2)NC(=O)c2ccccc2[S+]3[O-])cc1 (stereo not shown) [Compound 1486]
activity at 10 µM [1]: 53%
AD38 Viability Normalized Result (CPAM/DMSO %) at 10 μM (AD38 cells): 94%

O=C(NCCc1cnco1)c1ccc2c(c1)NC(=O)c1cccc(F)c1S2 [Compound 1487]
activity at 10 µM [1]: 15%
AD38 Viability Normalized Result (CPAM/DMSO %) at 10 μM (AD38 cells): 96%

CN(C)S(=O)(=O)c1ccc(CCNC(=O)c2ccc3c(c2)NC(=O)c2cccc(F)c2S3)cc1 [Compound 1488]
activity at 10 µM [1]: 84%
AD38 Viability Normalized Result (CPAM/DMSO %) at 10 μM (AD38 cells): 97%

O=C(NCc1cccnc1)c1ccc2c(c1)NC(=O)c1c(F)cccc1S2 [Compound 1490]
activity at 10 µM [1]: 7%
AD38 Viability Normalized Result (CPAM/DMSO %) at 10 μM (AD38 cells): 79%

O=C(NCCc1ccc(-c2ccccc2)cc1)c1cc2c(cc1F)Sc1ccccc1C(=O)N2 [Compound 1491]
activity at 10 µM [1]: 39%
AD38 Viability Normalized Result (CPAM/DMSO %) at 10 μM (AD38 cells): 80%

O=C(NCc1cnco1)c1ccc2c(c1)NC(=O)c1ccccc1N2Cc1ccccc1 [Compound 1492]
activity at 10 µM [1]: 39%
AD38 Viability Normalized Result (CPAM/DMSO %) at 10 μM (AD38 cells): 79%

O=C(NCc1cccnc1)c1ccc2c(c1)NC(=O)c1ccccc1N2Cc1ccccc1 [Compound 1493]
activity at 10 µM [1]: 51%
AD38 Viability Normalized Result (CPAM/DMSO %) at 10 μM (AD38 cells): 80%

O=C(Nc1ccncc1)c1ccc2c(c1)NC(=O)c1ccccc1N2Cc1ccccc1 [Compound 1494]
activity at 10 µM [1]: 115%
AD38 Viability Normalized Result (CPAM/DMSO %) at 10 μM (AD38 cells): 60%

Cc1c(C(=O)NCCc2ccc(-c3ccccc3)cc2)ccc2c1NC(=O)c1ccccc1S2 [Compound 1495]
activity at 10 µM [1]: 9%
AD38 Viability Normalized Result (CPAM/DMSO %) at 10 μM (AD38 cells): 77%

Cc1c(C(=O)Nc2cccc(-c3ccccc3)c2)ccc2c1NC(=O)c1ccccc1S2 [Compound 1496]
activity at 10 µM [1]: 2%
AD38 Viability Normalized Result (CPAM/DMSO %) at 10 μM (AD38 cells): 18%

O=C1Nc2c(cc(F)c(C(=O)NCCc3ccc(-c4ccccc4)cc3)c2F)Sc2ccccc21 [Compound 1497]
activity at 10 µM [1]: 9%
AD38 Viability Normalized Result (CPAM/DMSO %) at 10 μM (AD38 cells): 49%

CN1c2ccc(C(=O)NCCc3ccccn3)cc2NC(=O)c2ccccc21 [Compound 1498]
activity at 10 µM [1]: 1%
AD38 Viability Normalized Result (CPAM/DMSO %) at 10 μM (AD38 cells): 82%

CN1c2ccc(C(=O)NCc3cccnc3)cc2NC(=O)c2ccccc21 [Compound 1499]
activity at 10 µM [1]: 2%
AD38 Viability Normalized Result (CPAM/DMSO %) at 10 μM (AD38 cells): 84%

O=C1Nc2cc(COCCc3ccccc3)ccc2Sc2ccccc21 [Compound 1501, 8-(phenethoxymethyl) dibenzo [b,f] [1,4] thiazepin-11(10H)-one]
activity at 10 µM [1]: 37%
AD38 Viability Normalized Result (CPAM/DMSO %) at 10 μM (AD38 cells): 71%

Cc1nnc(NC(=O)c2ccc3c(c2)NC(=O)c2cc(F)ccc2S3)o1 [Compound 1503]
activity at 10 µM [1]: 40%
AD38 Viability Normalized Result (CPAM/DMSO %) at 10 μM (AD38 cells): 87%

O=C1Nc2cc(S(=O)(=O)Nc3cncnc3)ccc2Sc2ccccc21 [Compound 1505]
activity at 10 µM [1]: 81%
AD38 Viability Normalized Result (CPAM/DMSO %) at 10 μM (AD38 cells): 85%

O=C1Nc2cc(S(=O)(=O)Nc3cncnc3)ccc2[S+]([O-])c2ccccc21 (stereo not shown) [Compound 1506]
activity at 10 µM [1]: 72%
AD38 Viability Normalized Result (CPAM/DMSO %) at 10 μM (AD38 cells): 85%

CN(C)S(=O)(=O)c1ccc(CCNC(=O)c2cc3c(cc2F)Sc2ccccc2C(=O)N3)cc1 [Compound 1507]
activity at 10 µM [1]: 11%
AD38 Viability Normalized Result (CPAM/DMSO %) at 10 μM (AD38 cells): 96%

O=C(Nc1ccncc1)c1cc2c(cc1F)Sc1ccccc1C(=O)N2 [Compound 1508]
activity at 10 µM [1]: 31%
AD38 Viability Normalized Result (CPAM/DMSO %) at 10 μM (AD38 cells): 81%

O=C(Nc1cccc(-c2ccccc2)c1)c1cc2c(cc1F)Sc1ccccc1C(=O)N2 [Compound 1509]
activity at 10 µM [1]: 15%
AD38 Viability Normalized Result (CPAM/DMSO %) at 10 μM (AD38 cells): 29%

O=C(NCc1cncs1)c1ccc2c(c1)NC(=O)c1ccccc1N2Cc1ccccc1 [Compound 1510]
activity at 10 µM [1]: 62%
AD38 Viability Normalized Result (CPAM/DMSO %) at 10 μM (AD38 cells): 82%

O=C(NCCc1cncs1)c1ccc2c(c1)NC(=O)c1ccccc1N2Cc1ccccc1 [Compound 1511]
activity at 10 µM [1]: 38%
AD38 Viability Normalized Result (CPAM/DMSO %) at 10 μM (AD38 cells): 85%

CN(C)S(=O)(=O)c1ccc(CCNC(=O)c2ccc3c(c2)NC(=O)c2ccccc2N3Cc2ccccc2)cc1 [Compound 1512]
activity at 10 µM [1]: 27%
AD38 Viability Normalized Result (CPAM/DMSO %) at 10 μM (AD38 cells): 99%

Cc1c(C(=O)NCc2cncs2)ccc2c1NC(=O)c1ccccc1S2 [Compound 1513]
activity at 10 µM [1]: 2%
AD38 Viability Normalized Result (CPAM/DMSO %) at 10 μM (AD38 cells): 82%

Cc1c(C(=O)NCc2cnco2)ccc2c1NC(=O)c1ccccc1S2 [Compound 1514]
activity at 10 µM [1]: 13%
AD38 Viability Normalized Result (CPAM/DMSO %) at 10 μM (AD38 cells): 84%

Cc1c(C(=O)NCc2cccnc2)ccc2c1NC(=O)c1ccccc1S2 [Compound 1515]
activity at 10 µM [1]: 2%
AD38 Viability Normalized Result (CPAM/DMSO %) at 10 μM (AD38 cells): 82%

Cc1c(C(=O)Nc2ccncc2)ccc2c1NC(=O)c1ccccc1S2 [Compound 1516]
activity at 10 µM [1]: 30%
AD38 Viability Normalized Result (CPAM/DMSO %) at 10 μM (AD38 cells): 82%

Cc1c(C(=O)NCCc2ccc(S(=O)(=O)N(C)C)cc2)ccc2c1NC(=O)c1ccccc1S2 [Compound 1517]
activity at 10 µM [1]: 2%
AD38 Viability Normalized Result (CPAM/DMSO %) at 10 μM (AD38 cells): 78%

O=C1Nc2c(cc(F)c(C(=O)NCc3cncnc3)c2F)Sc2ccccc21 [Compound 1518]
activity at 10 µM [1]: 67%
AD38 Viability Normalized Result (CPAM/DMSO %) at 10 μM (AD38 cells): 85%

O=C1Nc2c(cc(F)c(C(=O)NCCc3ccccn3)c2F)Sc2ccccc21 [Compound 1519]
activity at 10 µM [1]: 73%
AD38 Viability Normalized Result (CPAM/DMSO %) at 10 μM (AD38 cells): 81%

CN1c2ccc(C(=O)NCc3cncnc3)cc2NC(=O)c2ccccc21 [Compound 1520]
activity at 10 µM [1]: 1%
AD38 Viability Normalized Result (CPAM/DMSO %) at 10 μM (AD38 cells): 81%

CN1c2ccc(C(=O)NCCc3ccc(-c4ccccc4)cc3)cc2NC(=O)c2ccccc21 [Compound 1521]
activity at 10 µM [1]: 1%
AD38 Viability Normalized Result (CPAM/DMSO %) at 10 μM (AD38 cells): 22%

CCN1c2ccc(C(=O)NCCc3ccccn3)cc2NC(=O)c2ccccc21 [Compound 1522]
activity at 10 µM [1]: 1%
AD38 Viability Normalized Result (CPAM/DMSO %) at 10 μM (AD38 cells): 82%

CCN1c2ccc(C(=O)NCCc3cccnc3)cc2NC(=O)c2ccccc21 [Compound 1523]
activity at 10 µM [1]: 1%
AD38 Viability Normalized Result (CPAM/DMSO %) at 10 μM (AD38 cells): 70%

CCN1c2ccc(C(=O)NCCc3ccc(-c4ccccc4)cc3)cc2NC(=O)c2ccccc21 [Compound 1524]
activity at 10 µM [1]: 2%
AD38 Viability Normalized Result (CPAM/DMSO %) at 10 μM (AD38 cells): 18%

NC(=O)c1ccc2c(c1)NC(=O)c1ccccc1S2 [Compound 1525]
activity at 10 µM [1]: 78%
AD38 Viability Normalized Result (CPAM/DMSO %) at 10 μM (AD38 cells): 85%

O=C1Nc2cc(S(=O)(=O)Nc3ccc(F)cc3F)ccc2Sc2ccccc21 [Compound 1526]
activity at 10 µM [1]: 57%
AD38 Viability Normalized Result (CPAM/DMSO %) at 10 μM (AD38 cells): 92%
